Tests used:
influenza virus = assay: microbe, parasite or virus in culture; format: cell-based, influenza virus (MDBK or MDCK cells); conditions: unidentified influenza virus, 72 h, read-out: CPE EC50, effective concentration to achieve 50% CPE inhibition, 3 days incubation, WST-8
[1] = molecular target: cap-dependent endonuclease (RNP fraction containing PB1•PB2•PA complex) (Influenza A virus, UniProt P15659); assay: biochemical; conditions: RNP from A/WSN/33 virus, capped Cy3/BHQ2 30mer RNA substrate, 60 minutes at room temperature; read-out: CEN IC50

COCCN1C[C@H](C(c2ccccc2)c2ccccc2)n2cc(C(=O)O)c(=O)c(O)c2C1=O [Example 2]
EC50 (influenza virus): 293 nM | IC50 [1]: 48 nM

CCN1C[C@H](C(c2ccccc2)c2ccccc2)n2cc(C(=O)O)c(=O)c(O)c2C1=O [Example 14]
EC50 (influenza virus): 313 nM | IC50 [1]: 43 nM

O=C(O)c1cn2c(c(O)c1=O)C(=O)N(CC1CCCCO1)C[C@@H]2C(c1ccccc1)c1ccccc1 (stereo partly drawn) [Example 26]
EC50 (influenza virus): 547 nM | IC50 [1]: 108 nM

O=C1c2c(O)c(=O)ccn2[C@@H](C(c2ccccc2)c2ccccc2)CN1Cc1ccccc1 [Example 37]
EC50 (influenza virus): 318 nM | IC50 [1]: 101 nM

COCCN1C[C@H](C(c2ccccc2)c2ccccc2)n2cc(CO)c(=O)c(O)c2C1=O [Example 48]
IC50 [1]: 87 nM

COCCN1C[C@H](C(c2ccccc2)c2ccccc2)n2cc(N)c(=O)c(O)c2C1=O [Example 56]
IC50 [1]: 358 nM

COCCN1C[C@H](C(c2ccccc2)c2ccccc2)n2cc(OC)c(=O)c(O)c2C1=O [Example 62]
IC50 [1]: 110 nM

COCCN1CN(C(c2ccccc2)c2ccccc2)n2cc(C(=O)O)c(=O)c(O)c2C1=O [Example 94]
IC50 [1]: 96 nM

COCCN1CN(Cc2ccccc2-c2ccccc2)n2ccc(=O)c(O)c2C1=O [Example 99]
IC50 [1]: 341 nM

O=C1c2c(O)c(=O)ccn2N(C2c3ccccc3CCc3ccccc32)CN1C1CC1 [Example 108]
EC50 (influenza virus): 19 nM | IC50 [1]: 37 nM

CN(CCN1CN(C(c2ccccc2)c2ccccc2)n2ccc(=O)c(O)c2C1=O)S(=O)(=O)c1ccccc1 [Example 138]
IC50 [1]: 166 nM

CN(CCN1CN(C(c2ccccc2)c2ccccc2)n2ccc(=O)c(O)c2C1=O)S(C)(=O)=O [Example 139]
EC50 (influenza virus): 741 nM | IC50 [1]: 189 nM

O=C1c2c(O)c(=O)ccn2N(C(c2ccccc2)c2ccccc2)CN1CCNS(=O)(=O)c1ccccc1 [Example 143]
EC50 (influenza virus): 333 nM | IC50 [1]: 224 nM

O=C(NCCN1CN(C(c2ccccc2)c2ccccc2)n2ccc(=O)c(O)c2C1=O)c1ccccc1 [Example 150]
IC50 [1]: 193 nM

O=C1c2c(O)c(=O)ccn2C(C(c2ccccc2)c2ccccc2)N2CCCCN12 (stereo not drawn) [Example 178]
EC50 (influenza virus): 75 nM | IC50 [1]: 61 nM

O=C(O)c1cn2c(c(O)c1=O)C(=O)N(CCOc1ccc(F)cc1)C[C@@H]2C(c1ccccc1)c1ccccc1 [Example 183]
EC50 (influenza virus): 2370 nM | IC50 [1]: 74 nM

O=C(O)c1cn2c(c(O)c1=O)C(=O)N(CC(F)(F)F)C[C@@H]2C(c1ccccc1)c1ccccc1 [Example 185]
EC50 (influenza virus): 1920 nM | IC50 [1]: 132 nM

O=C1c2c(O)c(=O)ccn2N(Cc2csc3ccc(Cl)cc23)CN1Cc1ccc(F)cc1 [Example 191]
EC50 (influenza virus): 2820 nM | IC50 [1]: 238 nM

CC(C)N1CN(Cc2cccc3ccsc23)n2ccc(=O)c(O)c2C1=O [Example 204]
EC50 (influenza virus): 2360 nM | IC50 [1]: 299 nM

O=C1c2c(O)c(=O)ccn2N(C(c2ccccc2)c2ccccc2)CN1C1CCOC1 (stereo not drawn) [Example 224]
EC50 (influenza virus): 119 nM | IC50 [1]: 276 nM

CN1CCC(N2CN(C(c3ccccc3)c3ccccc3)n3ccc(=O)c(O)c3C2=O)CC1 [Example 225]
EC50 (influenza virus): 663 nM | IC50 [1]: 283 nM

CCC(COC)N1CN(C(c2ccccc2)c2ccccc2)n2ccc(=O)c(O)c2C1=O (stereo not drawn) [Example 228]
EC50 (influenza virus): 141 nM | IC50 [1]: 243 nM

CCOC(=O)CC(C)N1CN(C(c2ccccc2)c2ccccc2)n2ccc(=O)c(O)c2C1=O (stereo not drawn) [Example 230]
EC50 (influenza virus): 525 nM | IC50 [1]: 282 nM

CNC(=O)C(C)N1CN(C(c2ccccc2)c2ccccc2)n2ccc(=O)c(O)c2C1=O (stereo not drawn) [Example 233]
EC50 (influenza virus): 2240 nM | IC50 [1]: 228 nM

CC(CC(=O)Nc1ccccc1)N1CN(C(c2ccccc2)c2ccccc2)n2ccc(=O)c(O)c2C1=O (stereo not drawn) [Example 238]
EC50 (influenza virus): 440 nM | IC50 [1]: 101 nM

CC(C)N1CN(C(c2ccccc2Cl)c2ccccc2Cl)n2ccc(=O)c(O)c2C1=O [Example 240]
EC50 (influenza virus): 48 nM | IC50 [1]: 37 nM

CC(N1CN(C(c2ccccc2)c2cccc(Cl)c2)n2ccc(=O)c(O)c2C1=O)C(F)(F)F (stereo not drawn) [Example 241]
EC50 (influenza virus): 63 nM | IC50 [1]: 197 nM

CC(C)N1CN(C(c2cccs2)c2cccs2)n2ccc(=O)c(O)c2C1=O [Example 244]
EC50 (influenza virus): 108 nM | IC50 [1]: 249 nM

CC(C)N1CN(C2c3ccc(Cl)cc3CCc3cc(Cl)ccc32)n2ccc(=O)c(O)c2C1=O [Example 246]
EC50 (influenza virus): 26 nM | IC50 [1]: 82 nM

CN1CC[C@H](N2CN(C3c4ccccc4CCc4ccccc43)n3ccc(=O)c(O)c3C2=O)C1 [Example 247]
EC50 (influenza virus): 2260 nM | IC50 [1]: 282 nM

CC(C)CN1CC(N2CN(C3c4ccccc4CCc4ccccc43)n3ccc(=O)c(O)c3C2=O)C1 [Example 248]
EC50 (influenza virus): 489 nM | IC50 [1]: 103 nM

CC(C)N1CC(N2CN(C3c4ccccc4CCc4ccccc43)n3ccc(=O)c(O)c3C2=O)C1 [Example 249]
EC50 (influenza virus): 1890 nM | IC50 [1]: 151 nM

CN1CC[C@@H](N2CN(C3c4ccccc4CCc4ccccc43)n3ccc(=O)c(O)c3C2=O)C1 [Example 250]
EC50 (influenza virus): 476 nM | IC50 [1]: 113 nM

CS(=O)(=O)N1CC[C@@H](N2CN(C3c4ccccc4CCc4ccccc43)n3ccc(=O)c(O)c3C2=O)C1 [Example 251]
EC50 (influenza virus): 157 nM | IC50 [1]: 58 nM

CC(C)N1CC[C@@H](N2CN(C3c4ccccc4CCc4ccccc43)n3ccc(=O)c(O)c3C2=O)C1 [Example 252]
EC50 (influenza virus): 454 nM | IC50 [1]: 107 nM

CN1CCC(N2CN(C3c4ccccc4CCc4ccccc43)n3ccc(=O)c(O)c3C2=O)CC1 [Example 253]
EC50 (influenza virus): 280 nM | IC50 [1]: 235 nM

O=C1c2c(O)c(=O)ccn2N(C2c3ccccc3CCc3ccccc32)CN1[C@@H]1CCN(CCO)C1 [Example 254]
EC50 (influenza virus): 564 nM | IC50 [1]: 135 nM

Cc1cc(CN2CN(C3c4ccccc4CCc4ccccc43)n3ccc(=O)c(O)c3C2=O)no1 [Example 255]
EC50 (influenza virus): 319 nM | IC50 [1]: 52 nM

O=C1c2c(O)c(=O)ccn2N(C2c3ccccc3CCc3ccccc32)CN1CCCF [Example 257]
EC50 (influenza virus): 55 nM | IC50 [1]: 41 nM

O=C1c2c(O)c(=O)ccn2N(C2c3ccccc3CCc3ccccc32)CN1CC(F)F [Example 259]
EC50 (influenza virus): 26 nM | IC50 [1]: 66 nM

CCC(COC)N1CN(C2c3ccccc3CCc3ccccc32)n2ccc(=O)c(O)c2C1=O (stereo not drawn) [Example 260]
EC50 (influenza virus): 65 nM | IC50 [1]: 91 nM

O=C1c2c(O)c(=O)ccn2N(C2c3ccccc3CCc3ccccc32)CN1Cc1ccccn1 [Example 264]
EC50 (influenza virus): 128 nM | IC50 [1]: 64 nM

CCN1CN(C2c3ccccc3CCc3ccccc32)n2ccc(=O)c(O)c2C1=O [Example 266]
EC50 (influenza virus): 85 nM | IC50 [1]: 43 nM

CCOCCN1CN(C2c3ccccc3CCc3ccccc32)n2ccc(=O)c(O)c2C1=O [Example 268]
EC50 (influenza virus): 74 nM | IC50 [1]: 18 nM

COCC(COC)N1CN(C2c3ccccc3CCc3ccccc32)n2ccc(=O)c(O)c2C1=O [Example 272]
IC50 [1]: 82 nM

O=C1c2c(O)c(=O)ccn2N(C2c3ccccc3CSc3ccccc32)CN1C1CCC(F)(F)CC1 (stereo not drawn) [Example 313]
IC50 [1]: 189 nM

COCCN1CN(C2c3ccccc3CSc3c(F)cccc32)n2ccc(=O)c(O)c2C1=O (stereo not drawn) [Example 336]
IC50 [1]: 51 nM

COCC(COC)N1CN(C2c3ccccc3CSc3c(F)cccc32)n2ccc(=O)c(O)c2C1=O (stereo not drawn) [Example 339]
IC50 [1]: 183 nM

CN1CN(C2c3ccccc3CSc3cc(Cl)ccc32)n2ccc(=O)c(O)c2C1=O (stereo not drawn) [Example 348]
IC50 [1]: 54 nM

CC(C)N1CN(C2c3ccccc3CSc3cc(F)ccc32)n2ccc(=O)c(O)c2C1=O (stereo not drawn) [Example 352]
IC50 [1]: 67 nM

Cc1cccc2c1SCc1ccccc1C2N1CN(C(C)C)C(=O)c2c(O)c(=O)ccn21 (stereo not drawn) [Example 356]
IC50 [1]: 66 nM

COCCN1CN(C2c3ccccc3COc3c(Cl)cccc32)n2ccc(=O)c(O)c2C1=O (stereo not drawn) [Example 396]
IC50 [1]: 56 nM

C[C@@H](N1CN([C@@H]2c3ccccc3SCc3c(Cl)cccc32)n2ccc(=O)c(O)c2C1=O)C(F)(F)F [Example 417]
IC50 [1]: 30 nM

C[C@@H](N1CN([C@H]2c3ccc(F)cc3CSc3ccccc32)n2ccc(=O)c(O)c2C1=O)C(F)(F)F [Example 454]
IC50 [1]: 12 nM

C[C@@H](N1CN([C@@H]2c3ccccc3SCc3c(Br)cccc32)n2ccc(=O)c(O)c2C1=O)C(F)(F)F [Example 463]
IC50 [1]: 12 nM

C[C@@H](N1CN([C@H]2c3cccc(F)c3CSc3c(F)cccc32)n2ccc(=O)c(O)c2C1=O)C(F)(F)F [Example 469]
IC50 [1]: 16 nM

C[C@@H](N1CN([C@H]2c3ccc(F)cc3CSc3c(F)cccc32)n2ccc(=O)c(O)c2C1=O)C(F)(F)F [Example 470]
IC50 [1]: 8 nM

CC(=O)N(C)CC1N(C(C)C)C(=O)c2c(O)c(=O)ccn2N1C1c2ccccc2CCc2ccccc21 (stereo not drawn) [Example 525]
IC50 [1]: 141 nM

COCCCC1N(C(C)C)C(=O)c2c(O)c(=O)ccn2N1C1c2ccc(F)cc2CCc2cc(F)ccc21 (stereo not drawn) [Example 526]
EC50 (influenza virus): 19 nM

CC(C)N1C(=O)c2c(O)c(=O)ccn2N(C2c3ccccc3CCc3ccccc32)C1CCN (stereo not drawn) [Example 533]
EC50 (influenza virus): 391 nM

CC(C)N1C(=O)c2c(O)c(=O)ccn2N(C2c3ccccc3CCc3ccccc32)C1CCCN (stereo not drawn) [Example 534]
EC50 (influenza virus): 1200 nM

CC(C)N1C(=O)c2c(O)c(=O)ccn2N(C2c3ccccc3CCc3ccccc32)C1CCN(C)C (stereo not drawn) [Example 537]
EC50 (influenza virus): 22 nM

CCN(CC)CC1N(CCO)C(=O)c2c(O)c(=O)ccn2N1C1c2ccccc2CCc2ccccc21 (stereo not drawn) [Example 550]
EC50 (influenza virus): 42 nM

CN(C)CC1N(CCO)C(=O)c2c(O)c(=O)ccn2N1C1c2ccccc2CCc2ccccc21 (stereo not drawn) [Example 551]
EC50 (influenza virus): 107 nM

CC(C)C1N(CCO)C(=O)c2c(O)c(=O)ccn2N1C1c2ccccc2CCc2ccccc21 (stereo not drawn) [Example 553]
IC50 [1]: 28 nM

COCCN1C(=O)c2c(O)c(=O)c(C(=O)O)cn2N(C2c3ccccc3CCc3ccccc32)C1CCSC (stereo not drawn) [Example 556]
EC50 (influenza virus): 412 nM

COCCN1C[C@H](C(c2ccccc2)c2ccccc2)n2cc(Cl)c(=O)c(O)c2C1=O [Example 558]
EC50 (influenza virus): 541 nM

N#Cc1ccccc1N1CC(C2c3ccccc3CCc3ccccc32)n2ccc(=O)c(O)c2C1=O (stereo not drawn) [Example 568]
EC50 (influenza virus): 2810 nM
